According to US20120189758A1, “Flavour Enhancement” (priority 2009, published 2012):

How the values were obtained:
[1] = Taste comparison of model savoury base, GABA solution and base plus GABA (Example 2); settings: 4 experienced tasters; base: 5000 ppm table salt, 150 ppm MSG, 75 ppm IMP/GMP; GABA 10 ppm
Description: A model savoury solution containing 5000 ppm table salt, 150 ppm MSG and 75 ppm IMP/GMP was used as a base.
Another solution was prepared containing 10 ppm GABA.
In a third solution, 10 ppm GABA was added to the base solution.
The solutions were compared by a small group of experienced tasters (3 male, 1 female).
The base solution was described as salty and umami. The GABA solution was tasteless. All members of the group preferred the third solution over the first one and judged to be noticeably different from the base.

[2] = GABA concentration series in reference savoury solution, tasted for umami enhancement (Example 4); settings: 5000 ppm table salt, 15 ppm MSG, 75 ppm IMP/GMP
Description: A reference solution containing 5000 ppm table salt, 15 ppm MSG and 75 ppm IMP/GMP was prepared. To different parts of this solution 5, 10, 15, 20, and 25 ppm GABA was added. The solutions were tasted by a small group of experienced tasters (3 male, 1 female). […] 15 ppm of GABA was the flavoured sample in comparison to the target.

NCCCC(=O)O [GABA, γ-amino butyric acid]
taste description [1]: tasteless
GABA concentration of the flavoured (favoured) sample in comparison to the target [2]: 15 ppm
